Reference: patent US20260226077A1, “TYPE II TOPOISOMERASE INHIBITORS AND METHODS OF MAKING AND USING THEREOF” (Ohio State Innovation Foundation, priority 2023, published 2026)
Values after ≈ are worked out from the molar mass of the structure shown. Marks after values point to notes of the source that are not given here.

Experiments:
[1] = tested on: Pseudomonas aeruginosa 27853; assay: MIC against Pseudomonas aeruginosa 27853; assay type: cell-based
in vivo = conditions: mouse
[2] = not given; remark: listed apart in the source
CACO-2 = assay: Permeability: CACO-2 A->B; assay type: in vitro ADME
[3] = Mouse microsomal stability; assay type: in vitro ADME; conditions: microsomes, read-out: Mouse microsom. t1/2
hERG = hERG (Homo sapiens, UniProt Q12809); assay: hERG inhibition; assay type: cell-based
Streptococcus pyogenes = assay: MIC50/90 against Streptococcus pyogenes; assay type: cell-based; conditions: for MIC50: n = 5 (147), n = 10 (others); for MIC90: n = 10
D83N = assay: MIC against D83N mutant; assay type: cell-based
[4] = Human microsomal stability; assay type: in vitro ADME; conditions: microsomes, read-out: Human microsom. t1/2
S. aureus ATCC 29213 = assay type: cell-based; conditions: Using S. aureus ATCC 29213
physchem = conditions: pH 7.4, aqueous buffer, kinetic from dmso stock, Kinetic solubility at pH 7.4-7.5 (μM)
Staphylococcus aureus = assay: MIC50/90 against Staphylococcus aureus isolates; assay type: cell-based; conditions: n = 30 (147), n = 100 (284, 319, gepotidacin)
Bacillus anthracis = assay: microbe, parasite or virus in culture; assay type: cell-based; conditions: for MIC50: read-out: Bacillus anthracis MIC50 (μg/mL); for MIC90: read-out: Bacillus anthracis MIC90 (μg/mL)
5-HT2b = 5-HT2b (Homo sapiens, UniProt P41595); assay: Safety44 screen at 100 μM: 5-HT2b
K562 = K562 cytotoxicity; assay type: cell-based; conditions: Homo sapiens
[5] = tested on: CYP 1A, 2B6, 2C8, 2C9, 2C19, 2D6, 3A; assay: CYP inhibition at 10 μM; assay type: in vitro ADME
Mouse pharmacokinetics = conditions: 284: as free base in immunocompetent mice, 147: no footnote
Streptococcus pneumoniae = assay: MIC50/90 against Streptococcus pneumoniae; assay type: cell-based; conditions: for MIC50: n = 5 (147), n = 10 (others); for MIC90: n = 10
Streptococcus agalactiae = assay: MIC50/90 against Streptococcus agalactiae; assay type: cell-based; conditions: Streptococcus agalactiae; for MIC50: n = 5 (147), n = 10 (others); for MIC90: n = 10
FQ-R MRSA = assay: MIC against FQ-R MRSA isolates; assay type: cell-based, Staphylococcus aureus; conditions: n = 15 (147), n = 25 (284, 319, gepotidacin); for MIC90: Staphylococcus aureus, MRSA
Enterococcus spp. = assay: MIC50/90 against Enterococcus spp.; assay type: cell-based; conditions: n = 10 (147), n = 20 (others)
[6] = tested on: Acinetobacter baumannii 19606; assay: MIC against Acinetobacter baumannii 19606; assay type: cell-based
Escherichia coli 25922 = assay: MIC against Escherichia coli 25922; assay type: cell-based; conditions: Escherichia coli, 25922
Neisseria gonorrhoeae = assay: MIC50/90 against Neisseria gonorrhoeae; assay type: cell-based; conditions: Neisseria gonorrhoeae; n = 17 (284, gepotidacin); n = 110 (147)
TopoIV/gyrase = TopoIV/gyrase inhibition ratio; assay type: biochemical
[7] = Permeability: CACO-2 A->B; assay type: in vitro ADME; conditions: human, Caco-2
Escherichia coli = assay: MIC50 against Escherichia coli isolates; assay type: cell-based; conditions: n = 8
in vitro [8] = conditions: mouse, plasma
Dog microsomal stability = assay type: in vitro ADME; conditions: microsomes, read-out: Dog microsom. t1/2
in vitro [9] = conditions: human, plasma
in vitro [10] = conditions: rat, plasma
S. aureus USA300 = assay: MIC against S. aureus USA300; assay type: cell-based; conditions: Staphylococcus aureus
S. aureus 29213 = assay: MIC against S. aureus 29213; assay type: cell-based; conditions: Staphylococcus aureus
[11] = Monkey microsomal stability; assay type: in vitro ADME; conditions: microsomes, read-out: Monkey microsom. t1/2
Rat microsomal stability = assay type: in vitro ADME; conditions: microsomes, read-out: Rat microsom. t1/2
M121K = assay: MIC against M121K mutant; assay type: cell-based
S. aureus CF isolate = assay: MIC against S. aureus CF isolate; assay type: cell-based; conditions: Staphylococcus aureus
[12] = all channels
Pseudomonas aeruginosa = assay: MIC50 against Pseudomonas aeruginosa isolates; assay type: cell-based; conditions: n = 8
[13] = Permeability: MDCK II A->B; assay type: in vitro ADME; conditions: dog
Burkholderia mallei = assay: microbe, parasite or virus in culture; assay type: cell-based; conditions: Burkholderia mallei
Haemophilus influenzae = assay: MIC50/90 against Haemophilus influenzae; assay type: cell-based; conditions: n = 10
Moraxella catarrhalis = assay: MIC50/90 against Moraxella catarrhalis; assay type: cell-based; conditions: n = 10
Francisella tularensis = assay: microbe, parasite or virus in culture; assay type: cell-based
Mycobacterium abscessus = assay: MIC50/90 against Mycobacterium abscessus; assay type: cell-based; conditions: Mycobacteroides abscessus; n = 10
[14] = tested on: Burkholderia pseudomallei; assay: microbe, parasite or virus in culture; assay type: cell-based
Mycobacterium avium = assay: MIC50 against Mycobacterium avium; assay type: cell-based; conditions: n = 4
Yersinia pestis = assay: microbe, parasite or virus in culture; assay type: cell-based
[15] = tested on: Staphylococcus epidermidis; assay: MIC50/90 against Staphylococcus epidermidis; assay type: cell-based; conditions: n = 10
[16] = tested on: Mycobacterium chimaera intracellulare group; assay: MIC50 against Mycobacterium chimaera intracellulare group; assay type: cell-based; conditions: n = 6
[17] = in vivo; cited from earlier work

Sequence of hERG (Q12809 whole entry): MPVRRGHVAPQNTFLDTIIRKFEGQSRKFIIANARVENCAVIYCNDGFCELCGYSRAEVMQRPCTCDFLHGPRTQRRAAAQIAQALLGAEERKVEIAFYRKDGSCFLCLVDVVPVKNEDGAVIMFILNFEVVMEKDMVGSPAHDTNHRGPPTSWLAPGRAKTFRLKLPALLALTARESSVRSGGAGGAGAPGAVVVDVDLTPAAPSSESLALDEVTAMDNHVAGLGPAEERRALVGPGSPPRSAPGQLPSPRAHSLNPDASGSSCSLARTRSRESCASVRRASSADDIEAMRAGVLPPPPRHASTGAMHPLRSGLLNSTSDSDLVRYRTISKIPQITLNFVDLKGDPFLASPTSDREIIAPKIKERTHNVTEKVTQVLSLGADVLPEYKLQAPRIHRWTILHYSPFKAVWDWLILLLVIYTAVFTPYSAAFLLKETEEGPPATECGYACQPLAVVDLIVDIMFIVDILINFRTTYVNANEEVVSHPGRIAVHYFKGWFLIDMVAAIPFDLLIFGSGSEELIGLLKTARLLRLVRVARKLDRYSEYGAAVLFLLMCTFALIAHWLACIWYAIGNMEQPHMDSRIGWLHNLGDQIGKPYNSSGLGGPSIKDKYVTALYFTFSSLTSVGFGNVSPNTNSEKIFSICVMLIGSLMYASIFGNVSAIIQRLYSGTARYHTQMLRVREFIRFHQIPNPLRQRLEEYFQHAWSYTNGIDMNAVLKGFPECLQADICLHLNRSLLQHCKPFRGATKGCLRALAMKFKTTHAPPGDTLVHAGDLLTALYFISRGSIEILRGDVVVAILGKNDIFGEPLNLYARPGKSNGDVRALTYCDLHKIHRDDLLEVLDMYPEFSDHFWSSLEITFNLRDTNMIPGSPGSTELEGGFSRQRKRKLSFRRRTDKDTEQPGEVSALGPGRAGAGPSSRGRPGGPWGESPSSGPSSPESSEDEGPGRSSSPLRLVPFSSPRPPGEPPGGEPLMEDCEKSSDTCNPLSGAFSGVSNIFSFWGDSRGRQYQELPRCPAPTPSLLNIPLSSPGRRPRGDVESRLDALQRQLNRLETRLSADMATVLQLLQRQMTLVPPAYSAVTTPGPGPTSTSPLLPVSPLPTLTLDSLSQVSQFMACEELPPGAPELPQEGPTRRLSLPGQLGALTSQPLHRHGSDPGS
Sequence of 5-HT2b (P41595 whole entry): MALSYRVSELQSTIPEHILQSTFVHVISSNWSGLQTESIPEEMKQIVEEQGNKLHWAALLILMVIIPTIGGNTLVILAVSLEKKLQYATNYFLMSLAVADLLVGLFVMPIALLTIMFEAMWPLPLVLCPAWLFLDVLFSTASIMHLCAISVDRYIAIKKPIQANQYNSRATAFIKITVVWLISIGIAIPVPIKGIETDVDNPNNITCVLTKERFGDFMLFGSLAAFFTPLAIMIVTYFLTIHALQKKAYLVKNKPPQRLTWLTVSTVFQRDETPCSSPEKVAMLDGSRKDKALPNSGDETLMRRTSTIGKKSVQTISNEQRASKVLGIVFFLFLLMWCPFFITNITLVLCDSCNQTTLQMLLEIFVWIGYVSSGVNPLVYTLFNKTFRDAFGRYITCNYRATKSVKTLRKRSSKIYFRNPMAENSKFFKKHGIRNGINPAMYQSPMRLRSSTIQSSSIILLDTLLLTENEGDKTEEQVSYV

## COc1ccc2ncc(F)c(C[C@H](O)[C@H]3OC[C@H](NCc4cc5c(nn4)OCCS5)CO3)c2n1 [Compound 147, reference compound]
[1]
  MIC: > 64 µg/mL
other
  Human plasma protein binding (% unbound): 15 % unbound
In vivo; Mouse Vdss (L)
  Vd: 1 L
In vivo; po, Mouse PK Oral bioavailability (%)
  bioavailability: 49%
[2]
  Mouse plasma protein binding (% unbound): 12 % unbound
CACO-2
  Permeability: CACO-2 A−>B (×10^−6 cm/s): 5.68 ×10^−6 cm/s
[3]
  half-life: 0.3 to 0.433 h
hERG
  IC50: 103 µM
Streptococcus pyogenes
  MIC50: 0.5 µg/mL (≈ 1.02 µM)
D83N
  MIC: 4 to 8 µg/mL (≈ 8.17 to 16.3 µM)
[4]
  half-life: 1.57 h
S. aureus ATCC 29213
  Resistance freq. (at 8X MIC): 2.02 × 10^−9*
physchem
  solubility kinetic: 69.6 µM (≈ 34.1 µg/mL)
Staphylococcus aureus
  MIC50: 0.12 µg/mL (≈ 0.245 µM)
  MIC90: 0.25 µg/mL (≈ 0.511 µM)
Bacillus anthracis
  MIC50: 2 µg/mL (≈ 4.09 µM)
  MIC90: 8 µg/mL (≈ 16.3 µM)
5-HT2b
  Safety44 screen at 100 μM: 5-HT2b: 5-HT2b (72%)
K562
  IC50: 153 µM
[5]
  CYP inhibition at 10 μM (1A, 2B6, 2C8, 2C9, 2C19, 2D6, 3A): No issues
Mouse pharmacokinetics; 50 mg/kg oral
  Mouse PK AUClast, unbound (μg*h/mL) after 50 mg/kg oral dose: 0.9 µg·h/mL
Mouse pharmacokinetics
  Mouse Clunbound: 575 mL/min/kg
Streptococcus pneumoniae
  MIC50: 0.5 µg/mL (≈ 1.02 µM)
Streptococcus agalactiae
  MIC50: 4 µg/mL (≈ 8.17 µM)
FQ-R MRSA
  MIC90: 0.25 µg/mL (≈ 0.511 µM)
Enterococcus spp.
  MIC50: 0.25 µg/mL (≈ 0.511 µM)
  MIC90: 1 µg/mL (≈ 2.04 µM)
[6]
  MIC: 64 µg/mL (≈ 131 µM)
Escherichia coli 25922
  MIC: > 64 µg/mL
Neisseria gonorrhoeae
  MIC50: > 4 µg/mL
  MIC90: > 4 µg/mL
TopoIV/gyrase
  TopoIV/gyrase ratio: 16

## O=C1COc2ncc(CN[C@H]3CO[C@H](CC4Cn5c(=O)ccc6ccc(F)c4c65)OC3)nc2N1 (stereo partly drawn) [Compound 319, 6-(((2-((9-fluoro-4-oxo-1,2-dihydro-4H-pyrrolo[3,2,1-ij]quinolin-1-yl)methyl)-trans-1,3-dioxan-5-yl)amino)methyl)-2H-pyrazino[2,3-b][1,4]oxazin-3(4H)-one]
[1]
  MIC: 64 µg/mL (≈ 137 µM)
other
  Human plasma protein binding (% unbound): 23 % unbound
[2]
  Mouse plasma protein binding (% unbound): 27 % unbound
[7]
  Papp A→B: 0.8 ×10⁻⁶ cm/s
[3]
  half-life: 5.78 h
Escherichia coli
  MIC50: 16 µg/mL (≈ 34.2 µM)
In vitro [8]
  half-life: > 4 h
Streptococcus pyogenes
  MIC50: 2 µg/mL (≈ 4.28 µM)
  MIC90: 8 µg/mL (≈ 17.1 µM)
D83N
  MIC: 4 µg/mL (≈ 8.56 µM)
Dog microsomal stability
  half-life: > 2 h
In vitro [9]
  half-life: 2.18 h
In vitro [10]
  half-life: > 4 h
S. aureus USA300
  MIC: 0.5 µg/mL (≈ 1.07 µM)
S. aureus 29213
  MIC: 0.5 µg/mL (≈ 1.07 µM)
[11]
  half-life: > 2 h
Rat microsomal stability
  half-life: > 2 h
[4]
  half-life: > 2 h
physchem
  solubility kinetic: 25 µM (≈ 11.7 µg/mL)
Staphylococcus aureus
  MIC50: 0.5 µg/mL (≈ 1.07 µM)
  MIC90: 1 µg/mL (≈ 2.14 µM)
M121K
  MIC: 4 µg/mL (≈ 8.56 µM)
S. aureus CF isolate
  MIC: 0.25 µg/mL (≈ 0.535 µM)
K562
  IC50: 135 µM
Streptococcus pneumoniae
  MIC50: 1 µg/mL (≈ 2.14 µM)
  MIC90: 2 µg/mL (≈ 4.28 µM)
[12]
  Comprehensive in vitro proarrhythmia assay at 100 μM, inhibition: All <25%
Streptococcus agalactiae
  MIC50: 16 µg/mL (≈ 34.2 µM)
  MIC90: 32 µg/mL (≈ 68.5 µM)
Pseudomonas aeruginosa
  MIC50: 16 µg/mL (≈ 34.2 µM)
FQ-R MRSA
  MIC90: 0.5 µg/mL (≈ 1.07 µM)
  FQ-R MRSA MIC90 (μg/mL): 0.5/0.5 μg/mL
Enterococcus spp.
  MIC50: 4 µg/mL (≈ 8.56 µM)
  MIC90: 8 µg/mL (≈ 17.1 µM)
[6]
  MIC: 16 µg/mL (≈ 34.2 µM)
Escherichia coli 25922
  MIC: 16 µg/mL (≈ 34.2 µM)
[13]
  Papp A→B: 1.96 ×10⁻⁶ cm/s
TopoIV/gyrase
  TopoIV/gyrase ratio: 0.65

## O=c1ccc2ncc(=O)n3c2n1C[C@H]3CN1CCC(NCc2cc3c(cn2)OCCC3)CC1 [gepotidacin, reference compound]
[1]
  MIC: 8 to 16 µg/mL (≈ 17.8 to 35.7 µM)
Streptococcus pyogenes
  MIC50: 0.12 µg/mL (≈ 0.268 µM)
  MIC90: 0.5 µg/mL (≈ 1.11 µM)
Burkholderia mallei; read-out: Burkholderia mallei MIC50 (μg/mL)
  MIC50: 8 µg/mL (≈ 17.8 µM)
Burkholderia mallei; read-out: Burkholderia mallei MIC90 (μg/mL)
  MIC90: ≥ 64 µg/mL
Haemophilus influenzae
  MIC50: 1 µg/mL (≈ 2.23 µM)
  MIC90: 2 µg/mL (≈ 4.46 µM)
Staphylococcus aureus
  MIC50: 0.25 µg/mL (≈ 0.557 µM)
  MIC90: 0.5 µg/mL (≈ 1.11 µM)
Bacillus anthracis
  MIC50: 0.5 µg/mL (≈ 1.11 µM)
  MIC90: 0.5 µg/mL (≈ 1.11 µM)
Moraxella catarrhalis
  MIC50: 0.06 µg/mL (≈ 0.134 µM)
  MIC90: 0.06 µg/mL (≈ 0.134 µM)
Francisella tularensis; read-out: Francisella tularensis MIC50 (μg/mL)
  MIC50: 0.12 µg/mL (≈ 0.268 µM)
Francisella tularensis; read-out: Francisella tularensis MIC90 (μg/mL)
  MIC90: 0.5 µg/mL (≈ 1.11 µM)
Mycobacterium abscessus
  MIC50: 16 µg/mL (≈ 35.7 µM)
  MIC90: 64 µg/mL (≈ 143 µM)
[14]; read-out: Burkholderia pseudomallei MIC50 (μg/mL)
  MIC50: 32 µg/mL (≈ 71.3 µM)
[14]; read-out: Burkholderia pseudomallei MIC90 (μg/mL)
  MIC90: 32 µg/mL (≈ 71.3 µM)
Mycobacterium avium
  MIC50: 32 µg/mL (≈ 71.3 µM)
Streptococcus pneumoniae
  MIC50: 0.12 µg/mL (≈ 0.268 µM)
  MIC90: 0.25 µg/mL (≈ 0.557 µM)
Yersinia pestis; read-out: Yersinia pestis MIC50 (μg/mL)
  MIC50: 0.12 µg/mL (≈ 0.268 µM)
Yersinia pestis; read-out: Yersinia pestis MIC90 (μg/mL)
  MIC90: 0.5 µg/mL (≈ 1.11 µM)
[15]
  MIC50: 0.25 µg/mL (≈ 0.557 µM)
  MIC90: 0.5 µg/mL (≈ 1.11 µM)
Streptococcus agalactiae
  MIC50: 0.5 µg/mL (≈ 1.11 µM)
  MIC90: 1 µg/mL (≈ 2.23 µM)
FQ-R MRSA
  MIC90: 0.5 µg/mL (≈ 1.11 µM)
Enterococcus spp.
  MIC50: 2 µg/mL (≈ 4.46 µM)
  MIC90: 4 µg/mL (≈ 8.92 µM)
[6]
  MIC: 32 µg/mL (≈ 71.3 µM)
Escherichia coli 25922
  MIC: 1 to 2 µg/mL (≈ 2.23 to 4.46 µM)
[16]
  MIC50: > 64 µg/mL
Neisseria gonorrhoeae
  MIC50: 0.5 µg/mL (≈ 1.11 µM)
  MIC90: 1 µg/mL (≈ 2.23 µM)

## NXL-101
[17]
  QT-prolongation in clinical studies: withdrawn from clinical studies as a result of QT-prolongation
